Measurements as given in PubChem BioAssay AID248 (DTP/NCI, 2004).
Where “and” joins values, the source holds several entries; their conditions need not be identical. Identical values can stand only once. Inconclusive results and toxic doses are left out. Cut-off read from the data, not from the text of the source: active = T/C of 150% or more; inactive = T/C below 125%.

System: L1210 leukemia ip in BDF1 mice, survival T/C
Assay: NCI In Vivo Anticancer Drug Screen. Data for tumor model L1210 Leukemia (intraperitoneal) in B6D2F1 (BDF1) mice
Conditions: endpoint: mean survival time, higher = longer survival
Procedure, shortened: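 Tumor was transplanted into mice, which were then dosed with test compound or vehicle alone. Survival was recorded for each group, and the treated figure was expressed relative to the control figure.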

[1] = dose: 25.0 mg/kg/injection, schedule: Q04DX003 (ip), vehicle: Klucel (hydroxypropylcellulose) (HPC)
[2] = dose: 50.0 mg/kg/injection, schedule: Q04DX003 (ip), vehicle: Klucel (hydroxypropylcellulose) (HPC)
[3] = dose: 100.0 mg/kg/injection, schedule: Q04DX003 (ip), vehicle: Klucel (hydroxypropylcellulose) (HPC)
[4] = dose: 100.0 mg/kg/injection, schedule: Q01DX009 (ip), vehicle: saline with Tween-80
[5] = dose: 200.0 mg/kg/injection, schedule: Q01DX009 (ip), vehicle: saline with Tween-80
[6] = dose: 400.0 mg/kg/injection, schedule: Q01DX009 (ip), vehicle: saline with Tween-80
[7] = dose: 100.0 mg/kg/injection, schedule: Q04DX003 (ip), vehicle: saline
[8] = dose: 200.0 mg/kg/injection, schedule: Q04DX003 (ip), vehicle: saline
[9] = dose: 100.0 mg/kg/injection, schedule: Q04DX003 (ip), vehicle: saline with Tween-80
[10] = dose: 200.0 mg/kg/injection, schedule: Q04DX003 (ip), vehicle: saline with Tween-80
[11] = dose: 400.0 mg/kg/injection, schedule: Q04DX003 (ip), vehicle: saline with Tween-80
[12] = dose: 200.0 mg/kg/injection, schedule: Q04DX003 (ip), vehicle: Klucel (hydroxypropylcellulose) (HPC)
[13] = dose: 400.0 mg/kg/injection, schedule: Q04DX003 (ip), vehicle: Klucel (hydroxypropylcellulose) (HPC)
[14] = dose: 100.0 mg/kg/injection, schedule: Q01DX009 (ip), vehicle: saline
[15] = dose: 200.0 mg/kg/injection, schedule: Q01DX009 (ip), vehicle: saline
[16] = dose: 400.0 mg/kg/injection, schedule: Q01DX009 (ip), vehicle: saline
[17] = dose: 400.0 mg/kg/injection, schedule: Q04DX003 (ip), vehicle: saline
[18] = dose: 100.0 mg/kg/injection, schedule: Q01DX001 (ip), vehicle: saline
[19] = dose: 200.0 mg/kg/injection, schedule: Q01DX001 (ip), vehicle: saline
[20] = dose: 400.0 mg/kg/injection, schedule: Q01DX001 (ip), vehicle: saline
[21] = dose: 100.0 mg/kg/injection, schedule: Q01DX001 (ip), vehicle: carboxymethylcellulose (CMC)
[22] = dose: 200.0 mg/kg/injection, schedule: Q01DX001 (ip), vehicle: carboxymethylcellulose (CMC)
[23] = dose: 400.0 mg/kg/injection, schedule: Q01DX001 (ip), vehicle: carboxymethylcellulose (CMC)
[24] = dose: 100.0 mg/kg/injection, schedule: Q01DX009 (ip), vehicle: Klucel (hydroxypropylcellulose) (HPC)
[25] = dose: 200.0 mg/kg/injection, schedule: Q01DX009 (ip), vehicle: Klucel (hydroxypropylcellulose) (HPC)
[26] = dose: 400.0 mg/kg/injection, schedule: Q01DX009 (ip), vehicle: Klucel (hydroxypropylcellulose) (HPC)
[27] = dose: 50.0 mg/kg/injection, schedule: Q01DX009 (ip), vehicle: saline with Tween-80

Measured: T/C

CCN(CC)CCOc1ccc(-c2nc3cc(Cl)ccc3s2)cc1
inactive: dose: 15.0 mg/kg/injection, schedule: Q01DX015 (ip), vehicle: saline 95 % of control | dose: 30.0 mg/kg/injection, schedule: Q01DX015 (ip), vehicle: saline 94 % of control | dose: 60.0 mg/kg/injection, schedule: Q01DX015 (ip), vehicle: saline 94 % of control | dose: 120.0 mg/kg/injection, schedule: Q01DX015 (ip), vehicle: saline 91 % of control

N#CCCCOc1ccc(Cl)cc1
inactive: [1] 104 % of control | [2] 104 % of control | [3] 98 % of control

CC(C)(Cc1ccc(F)cc1)NCc1ccccc1
inactive: dose: 25.0 mg/kg/injection, schedule: Q01DX009 (ip), vehicle: Klucel (hydroxypropylcellulose) (HPC) 92 % of control | [1] 101 % of control | dose: 50.0 mg/kg/injection, schedule: Q01DX009 (ip), vehicle: Klucel (hydroxypropylcellulose) (HPC) 95 % of control | [2] 103 % of control | [3] 88 % of control and 92 % of control

O=[N+]([O-])c1cccc(OCCCc2ccccc2)c1
inactive: [4] 98 % of control | [5] 102 % of control | [6] 112 % of control

O=C1C=C2CCN(Cc3ccccc3)CC2CC1 (configuration not stated)
inactive: dose: 100.0 mg/kg/injection, schedule: Q01DX001 (ip), vehicle: acetone 97 % of control | [7] 104 % of control | dose: 200.0 mg/kg/injection, schedule: Q01DX001 (ip), vehicle: acetone 102 % of control | [8] 101 % of control | dose: 400.0 mg/kg/injection, schedule: Q01DX001 (ip), vehicle: acetone 98 % of control

CC(C)CCCC(C)C1CCC2C3CC=C4C=C(OC(=O)c5ccccc5)CCC4(C)C3CCC12C (configuration not stated)
inactive: [4] 90 % of control | [9] 97 % of control | [5] 87 % of control | [10] 95 % of control | [6] 95 % of control | [11] 87 % of control

O=[N+]([O-])c1ccc(Cl)c(CNc2ncnc3nc[nH]c23)c1
inactive: [9] 92 % of control | [10] 93 % of control | [11] 106 % of control

ON=C(c1ccccn1)c1ccccn1
inactive: dose: 100.0 mg/kg/injection, schedule: Q01DX009 (ip), vehicle: gum acacia 93 % of control | [3] 97 % of control | dose: 200.0 mg/kg/injection, schedule: Q01DX009 (ip), vehicle: gum acacia 88 % of control | [12] 93 % of control | dose: 400.0 mg/kg/injection, schedule: Q01DX009 (ip), vehicle: gum acacia 98 % of control | [13] 95 % of control

CC(C)CC(Br)C(=O)NC(CC(C)C)C(=O)O (configuration not stated)
inactive: [4] 96 % of control | [5] 88 % of control | [6] 92 % of control

Nc1c(S(=O)(=O)O)cc(Br)c2c1C(=O)c1ccccc1C2=O
inactive: [14] 92 % of control | [7] 96 % of control | [15] 95 % of control | [8] 93 % of control | [16] 101 % of control | [17] 95 % of control

COC(=O)C1CC2(Br)C(Br)=C(Br)C1(Br)C2(Br)Br (configuration not stated)
inactive: [18] 88 % of control | [14] 102 % of control | [19] 100 % of control | [15] 98 % of control | [20] 88 % of control | [16] 91 % of control

Clc1ccccc1/C=N/Nc1nnc(N/N=C/c2ccccc2Cl)c2ccccc12
inactive: dose: 50.0 mg/kg/injection, schedule: Q01DX001 (ip), vehicle: carboxymethylcellulose (CMC) 95 % of control | [21] 89 % of control | [22] 89 % of control | [23] 89 % of control

Nc1nc(C(=O)O)cc(=O)[nH]1
inactive: [21] 103 % of control | [22] 113 % of control | [23] 96 % of control

CC(C)c1ccc(C(=O)O)cc1S(=O)(=O)F
inactive: [4] 95 % of control | [5] 98 % of control

O=C(N(CCc1ccc(O)cc1)Cc1ccc2c(c1)OCO2)C(F)(F)F
inactive: dose: 100.0 mg/kg/injection, schedule: Q04DX003 (ip), vehicle: gum acacia 91 % of control | dose: 200.0 mg/kg/injection, schedule: Q04DX003 (ip), vehicle: gum acacia 91 % of control | dose: 400.0 mg/kg/injection, schedule: Q04DX003 (ip), vehicle: gum acacia 88 % of control

CCOC(=O)N(CC)c1ccccc1
inactive: [24] 103 % of control | [7] 88 % of control | [25] 107 % of control | [8] 101 % of control | [26] 102 % of control | [17] 98 % of control

CC(SCc1ccccc1)C(=O)O (configuration not stated)
inactive: [18] 97 % of control | [19] 94 % of control | [20] 92 % of control

O=C(Sc1ccccc1)C1OC1(c1ccccc1)c1ccccc1 (configuration not stated)
inactive: [3] 97 % of control | [12] 88 % of control

CC(=O)c1ccc(CC23CC4CC(CC(C4)C2)C3)cc1
inactive: [24] 99 % of control | [25] 90 % of control | [26] 94 % of control

CCCCC(=O)NC1=CC(=O)c2ccccc2C1=O
inactive: dose: 75.0 mg/kg/injection, schedule: Q01DX001 (ip), vehicle: saline 95 % of control | dose: 150.0 mg/kg/injection, schedule: Q01DX001 (ip), vehicle: saline 91 % of control

COc1cc(NC(=O)Nc2ccccc2Cl)c(OC)cc1Cl
inactive: dose: 100.0 mg/kg/injection, schedule: Q04DX002 (ip), vehicle: saline with Tween-80 93 % of control

CC1=CC2(C)CCC(=O)C(Cc3c(CCCC4(C)OCCO4)noc3C)=C2CC1 (configuration not stated)
inactive: [3] 95 % of control | [12] 95 % of control | [13] 91 % of control

Nc1ccc(C(=O)Oc2ccc([N+](=O)[O-])cc2)cc1
inactive: [9] 98 % of control | [10] 88 % of control | [11] 86 % of control

CCOC(=O)C(=O)NCc1cnccn1
inactive: dose: 100.0 mg/kg/injection, schedule: Q01DX009 (ip), vehicle: water 103 % of control | dose: 100.0 mg/kg/injection, schedule: Q04DX003 (ip), vehicle: water 91 % of control | dose: 200.0 mg/kg/injection, schedule: Q01DX009 (ip), vehicle: water 101 % of control and 107 % of control | dose: 200.0 mg/kg/injection, schedule: Q04DX003 (ip), vehicle: water 94 % of control | dose: 400.0 mg/kg/injection, schedule: Q01DX009 (ip), vehicle: water 94 % of control and 110 % of control | dose: 400.0 mg/kg/injection, schedule: Q04DX003 (ip), vehicle: water 104 % of control

C=C1CC2OC(=O)C(=C)C2C(OC(=O)c2ccccc2)/C=C(\C)CCC1OC(=O)c1ccccc1 (configuration not stated)
inactive: dose: 100.0 mg/kg/injection, schedule: Q04DX002 (ip), vehicle: Klucel (hydroxypropylcellulose) (HPC) 108 % of control | dose: 200.0 mg/kg/injection, schedule: Q04DX002 (ip), vehicle: Klucel (hydroxypropylcellulose) (HPC) 91 % of control | dose: 400.0 mg/kg/injection, schedule: Q04DX002 (ip), vehicle: Klucel (hydroxypropylcellulose) (HPC) 97 % of control

CC(O)CN1CCCCCC1 (configuration not stated)
inactive: dose: 12.5 mg/kg/injection, schedule: Q01DX009 (ip), vehicle: saline with Tween-80 103 % of control | dose: 25.0 mg/kg/injection, schedule: Q01DX009 (ip), vehicle: saline with Tween-80 94 % of control | dose: 25.0 mg/kg/injection, schedule: Q04DX003 (ip), vehicle: saline with Tween-80 107 % of control | [27] 93 % of control | dose: 50.0 mg/kg/injection, schedule: Q04DX003 (ip), vehicle: saline with Tween-80 107 % of control | [9] 95 % of control

OC(C1CCCCN1)C12CC3CC(CC(C3)C1)C2 (configuration not stated)
inactive: [27] 104 % of control | [4] 98 % of control | [9] 105 % of control | [10] 95 % of control

CCOC(CN)C(Cl)(Cl)Cl (configuration not stated)
inactive: dose: 50.0 mg/kg/injection, schedule: Q01DX009 (ip), vehicle: saline 98 % of control | [14] 98 % of control and 104 % of control | [15] 101 % of control and 116 % of control
